Measurements published in PubChem BioAssay AID1963423 (Molecular Pharmacology Branch, DTP, NCI, 2024).

Tested on: 439559-082-T-J2-PDC complex spheroid growth
Assay: Anticancer human tumor 439559-082-T-J2-PDC patient-derived colon adenocarcinoma cell line growth inhibition [Asc]
Conditions: for IC50: curve of first compound; for viability, T/C: stronger effect = lower value
In short: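 Stromal components (HUVEC and hMSC) are co-assembled with the cancer cells into multicellular spheroids. Drugs are then added singly or paired, at concentrations falling by half-log increments from a clinically achievable maximum, capped at 10 microM without known Cmax.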

[1] = second compound 0.1 µM, first compound 0.00316 µM
[2] = second compound 0.1 µM, first compound 0.01 µM
[3] = second compound 0.1 µM, first compound 0.0316 µM
[4] = second compound 0.1 µM, first compound 0.1 µM
[5] = second compound 0.1 µM, first compound 0.316 µM
[6] = second compound 0.1 µM, first compound 1 µM
[7] = second compound 0.316 µM, first compound 0.00316 µM
[8] = second compound 0.316 µM, first compound 0.01 µM
[9] = second compound 0.316 µM, first compound 0.0316 µM
[10] = second compound 0.316 µM, first compound 0.1 µM
[11] = second compound 0.316 µM, first compound 0.316 µM
[12] = second compound 0.316 µM, first compound 1 µM
[13] = second compound 1 µM, first compound 0.00316 µM
[14] = second compound 1 µM, first compound 0.01 µM
[15] = second compound 1 µM, first compound 0.0316 µM
[16] = second compound 1 µM, first compound 0.1 µM
[17] = second compound 1 µM, first compound 0.316 µM
[18] = second compound 1 µM, first compound 1 µM
[19] = second compound 3.16 µM, first compound 0.00316 µM
[20] = second compound 3.16 µM, first compound 0.01 µM
[21] = second compound 3.16 µM, first compound 0.0316 µM
[22] = second compound 3.16 µM, first compound 0.1 µM
[23] = second compound 3.16 µM, first compound 0.316 µM
[24] = second compound 3.16 µM, first compound 1 µM
[25] = second compound 10 µM, first compound 0.00316 µM
[26] = second compound 10 µM, first compound 0.01 µM
[27] = second compound 10 µM, first compound 0.0316 µM
[28] = second compound 10 µM, first compound 0.1 µM
[29] = second compound 10 µM, first compound 0.316 µM
[30] = second compound 10 µM, first compound 1 µM
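Also: spheroids exposed to agents for 7 days starting day 3 after seeding.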
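For viability, T/C in this document: percent of DMSO vehicle control viability with 100% = vehicle.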

Compound: CCN1CCN(Cc2ccc(Nc3ncc(F)c(-c4cc(F)c5nc(C)n(C(C)C)c5c4)n3)nc2)CC1 + Cc1c(S(C)(=O)=O)c(-c2cc(F)cc(N3CCN(c4ccc(NS(=O)(=O)c5ccc(NC(CCN6CCC(C(=O)OCCCP(=O)(O)O)CC6)CSc6ccccc6)c(S(=O)(=O)C(F)(F)F)c5)cc4)CC3)c2)c(-c2ccc(Cl)cc2)n1C(C)C
- IC50 (second compound 0.1 µM): > 1000 nM
- IC50 (second compound 0.316 µM): > 1000 nM
- IC50 (second compound 1 µM): > 1000 nM
- IC50 (second compound 3.16 µM): > 1000 nM
- IC50 (second compound 10 µM): > 1000 nM
- viability, T/C [1]: 93.5%
- viability, T/C [2]: 107%
- viability, T/C [3]: 94.2%
- viability, T/C [4]: 85.3%
- viability, T/C [5]: 92.8%
- viability, T/C [6]: 80.5%
- viability, T/C [7]: 101%
- viability, T/C [8]: 102%
- viability, T/C [9]: 103%
- viability, T/C [10]: 78.5%
- viability, T/C [11]: 84.2%
- viability, T/C [12]: 73.4%
- viability, T/C [13]: 96.5%
- viability, T/C [14]: 93.5%
- viability, T/C [15]: 94.3%
- viability, T/C [16]: 80.5%
- viability, T/C [17]: 80%
- viability, T/C [18]: 70%
- viability, T/C [19]: 85.1%
- viability, T/C [20]: 92.5%
- viability, T/C [21]: 98.9%
- viability, T/C [22]: 72.4%
- viability, T/C [23]: 69.4%
- viability, T/C [24]: 68.6%
- viability, T/C [25]: 82.4%
- viability, T/C [26]: 81.7%
- viability, T/C [27]: 83.2%
- viability, T/C [28]: 63.5%
- viability, T/C [29]: 61.2%
- viability, T/C [30]: 50.1%

Compound: Cn1ncnc1[C@H]1c2n[nH]c(=O)c3cc(F)cc(c23)N[C@@H]1c1ccc(F)cc1 + Cc1c(S(C)(=O)=O)c(-c2cc(F)cc(N3CCN(c4ccc(NS(=O)(=O)c5ccc(NC(CCN6CCC(C(=O)OCCCP(=O)(O)O)CC6)CSc6ccccc6)c(S(=O)(=O)C(F)(F)F)c5)cc4)CC3)c2)c(-c2ccc(Cl)cc2)n1C(C)C
- IC50 (second compound 0.1 µM): > 100 nM
- IC50 (second compound 0.316 µM): > 100 nM
- IC50 (second compound 1 µM): > 100 nM
- IC50 (second compound 3.16 µM): > 100 nM
- IC50 (second compound 10 µM): > 100 nM
- viability, T/C (second compound 0.1 µM, first compound 0.000316 µM): 102%
- viability, T/C (second compound 0.1 µM, first compound 0.001 µM): 106%
- viability, T/C [1]: 103%
- viability, T/C [2]: 85.5%
- viability, T/C [3]: 98%
- viability, T/C [4]: 87.7%
- viability, T/C (second compound 0.316 µM, first compound 0.000316 µM): 100%
- viability, T/C (second compound 0.316 µM, first compound 0.001 µM): 98.8%
- viability, T/C [7]: 102%
- viability, T/C [8]: 90.2%
- viability, T/C [9]: 90.4%
- viability, T/C [10]: 84.8%
- viability, T/C (second compound 1 µM, first compound 0.000316 µM): 91%
- viability, T/C (second compound 1 µM, first compound 0.001 µM): 93.3%
- viability, T/C [13]: 102%
- viability, T/C [14]: 83%
- viability, T/C [15]: 85.4%
- viability, T/C [16]: 81.1%
- viability, T/C (second compound 3.16 µM, first compound 0.000316 µM): 85%
- viability, T/C (second compound 3.16 µM, first compound 0.001 µM): 89.3%
- viability, T/C [19]: 92.7%
- viability, T/C [20]: 81.3%
- viability, T/C [21]: 79.4%
- viability, T/C [22]: 76.3%
- viability, T/C (second compound 10 µM, first compound 0.000316 µM): 72.7%
- viability, T/C (second compound 10 µM, first compound 0.001 µM): 74%
- viability, T/C [25]: 75%
- viability, T/C [26]: 76.8%
- viability, T/C [27]: 70.8%
- viability, T/C [28]: 66.5%

Compound: O=C(c1cc(Cc2n[nH]c(=O)c3ccccc23)ccc1F)N1CCN(C(=O)C2CC2)CC1 + Cc1c(S(C)(=O)=O)c(-c2cc(F)cc(N3CCN(c4ccc(NS(=O)(=O)c5ccc(NC(CCN6CCC(C(=O)OCCCP(=O)(O)O)CC6)CSc6ccccc6)c(S(=O)(=O)C(F)(F)F)c5)cc4)CC3)c2)c(-c2ccc(Cl)cc2)n1C(C)C
- IC50 (second compound 0.1 µM): > 10000 nM
- IC50 (second compound 0.316 µM): > 10000 nM
- IC50 (second compound 1 µM): > 10000 nM
- IC50 (second compound 3.16 µM): > 10000 nM
- IC50 (second compound 10 µM): > 10000 nM
- viability, T/C [3]: 101%
- viability, T/C [4]: 110%
- viability, T/C [5]: 98.4%
- viability, T/C [6]: 92.6%
- viability, T/C (second compound 0.1 µM, first compound 3.16 µM): 98.1%
- viability, T/C (second compound 0.1 µM, first compound 10 µM): 90.9%
- viability, T/C [9]: 86%
- viability, T/C [10]: 102%
- viability, T/C [11]: 109%
- viability, T/C [12]: 92.5%
- viability, T/C (second compound 0.316 µM, first compound 3.16 µM): 99%
- viability, T/C (second compound 0.316 µM, first compound 10 µM): 90.3%
- viability, T/C [15]: 91.3%
- viability, T/C [16]: 101%
- viability, T/C [17]: 105%
- viability, T/C [18]: 93%
- viability, T/C (second compound 1 µM, first compound 3.16 µM): 92.4%
- viability, T/C (second compound 1 µM, first compound 10 µM): 92.8%
- viability, T/C [21]: 93%
- viability, T/C [22]: 101%
- viability, T/C [23]: 96.1%
- viability, T/C [24]: 80%
- viability, T/C (second compound 3.16 µM, first compound 3.16 µM): 98.4%
- viability, T/C (second compound 3.16 µM, first compound 10 µM): 86.1%
- viability, T/C [27]: 71.6%
- viability, T/C [28]: 73.6%
- viability, T/C [29]: 92.2%
- viability, T/C [30]: 84.1%
- viability, T/C (second compound 10 µM, first compound 3.16 µM): 76.5%
- viability, T/C (second compound 10 µM, first compound 10 µM): 72.7%

Compound: O=C(c1ccc(F)c(F)c1Nc1ccc(I)cc1F)N1CC(O)([C@@H]2CCCCN2)C1 + Cc1c(S(C)(=O)=O)c(-c2cc(F)cc(N3CCN(c4ccc(NS(=O)(=O)c5ccc(NC(CCN6CCC(C(=O)OCCCP(=O)(O)O)CC6)CSc6ccccc6)c(S(=O)(=O)C(F)(F)F)c5)cc4)CC3)c2)c(-c2ccc(Cl)cc2)n1C(C)C
- IC50 (second compound 0.1 µM): 201 nM
- IC50 (second compound 0.316 µM): 188 nM
- IC50 (second compound 1 µM): 141 nM
- IC50 (second compound 3.16 µM): 104 nM
- IC50 (second compound 10 µM): 56.6 nM
- viability, T/C [1]: 96.7%
- viability, T/C [2]: 105%
- viability, T/C [3]: 76%
- viability, T/C [4]: 57.5%
- viability, T/C [5]: 47.7%
- viability, T/C [6]: 16.9%
- viability, T/C [7]: 96%
- viability, T/C [8]: 103%
- viability, T/C [9]: 79.8%
- viability, T/C [10]: 59.5%
- viability, T/C [11]: 42.6%
- viability, T/C [12]: 11.5%
- viability, T/C [13]: 88.8%
- viability, T/C [14]: 96.1%
- viability, T/C [15]: 84.6%
- viability, T/C [16]: 48.5%
- viability, T/C [17]: 38.2%
- viability, T/C [18]: 7.87%
- viability, T/C [19]: 91.6%
- viability, T/C [20]: 90.9%
- viability, T/C [21]: 76.3%
- viability, T/C [22]: 45.4%
- viability, T/C [23]: 29.9%
- viability, T/C [24]: 4.98%
- viability, T/C [25]: 76.5%
- viability, T/C [26]: 68.7%
- viability, T/C [27]: 68.3%
- viability, T/C [28]: 32.6%
- viability, T/C [29]: 19.1%
- viability, T/C [30]: 2.9%
